Reference: patent EP3046573B1, “AMYLIN ANALOGUES” (Zealand Pharma A/S, priority 2013, dated 2015)
Read-outs that look alike come from different tables or passages of the source. Numbered stars: 1 amine (or outer) side, 2 acyl side, 3 side chain; on linkers, the order of the positions; unused ones are H or OH. Bridge positions count the residues as written; N and C are the ends. Square brackets hold non-standard residues; d marks the D form. Peptide text beside a SMILES is read from it. * marks the point of attachment. C20 diacid = O=C(O)CCCCCCCCCCCCCCCCCCC(=O)*; γGlu = O=C(O)[C@H](CCC(=O)[*:2])N[*:1]; NMeI = CC[C@H](C)[C@H](NC)C(=O)O; Sar = CNCC(=O)O

How the values were obtained:
[1] = molecular target: T1, human calcitonin receptor (hCTR2) (Homo sapiens, UniProt P30988); assay: hCTR2 assay: induction of cAMP (AlphaScreen cAMP Assay kit) in COS7 cells expressing hCTR2; format: cell-based
T1 construct: expressed in transfected cells
T1 sequence (P30988 25-474): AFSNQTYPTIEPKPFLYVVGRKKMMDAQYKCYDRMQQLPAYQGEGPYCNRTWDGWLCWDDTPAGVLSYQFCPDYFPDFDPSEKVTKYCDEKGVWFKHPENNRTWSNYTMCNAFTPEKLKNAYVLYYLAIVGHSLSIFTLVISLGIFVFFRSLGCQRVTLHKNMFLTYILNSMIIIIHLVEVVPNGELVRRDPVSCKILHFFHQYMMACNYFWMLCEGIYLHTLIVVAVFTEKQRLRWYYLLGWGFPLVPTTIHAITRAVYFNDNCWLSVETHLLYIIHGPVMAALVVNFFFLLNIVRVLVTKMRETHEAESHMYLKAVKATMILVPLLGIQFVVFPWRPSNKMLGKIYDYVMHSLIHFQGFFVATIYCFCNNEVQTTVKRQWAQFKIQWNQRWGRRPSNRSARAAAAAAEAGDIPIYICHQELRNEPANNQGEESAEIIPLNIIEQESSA
Summary of the method: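 Peptide-induced cAMP in hCTR2-expressing COS7 cells, 15 min at 37° C with phosphodiesterase inhibitor IBMX (100 µM), detected by AlphaScreen; potency from 4PL curves.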

[2] = Solubility assessment (turbidity absorbance at 325 nm); format: physicochemical; conditions: stock 2 mg/ml diluted 1:1, ambient temperature (typically 25°C), n=1; for Solubility, Acetate buffer pH 4: 100 mM acetate buffer pH 4.0; for Solubility, Acetate buffer pH 5: 100 mM acetate buffer pH 5.0; for Solubility, Histidine buffer pH 6: 100 mM histidine buffer pH 6.0; for Solubility, Histidine buffer pH 7: 100 mM histidine buffer pH 7.0; for Solubility, Phosphate buffer pH 6: 100 mM phosphate buffer pH 6.0; for Solubility, Phosphate buffer pH 7: 100 mM phosphate buffer pH 7.0; for Solubility, Phosphate buffer pH 7.5: 100 mM phosphate buffer pH7.5
Summary of the method: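 Turbidimetric screen across pH 4.0–7.5 in 100 mM acetate, histidine and phosphate buffers. A 2 mg/ml peptide stock (pH 2.5) was diluted 1:1 into each, then A325 measured at ambient temperature; values ≤ 0.02 AU denoted solubility of 1 mg/ml or more.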

SMILES	EC50 [1] [nM]	Solubility, Acetate buffer pH 4 [2]	Solubility, Acetate buffer pH 5 [2]	Solubility, Histidine buffer pH 6 [2]	Solubility, Histidine buffer pH 7 [2]	Solubility, Phosphate buffer pH 6 [2]	Solubility, Phosphate buffer pH 7 [2]	Solubility, Phosphate buffer pH 7.5 [2]	EC50 ([1]; cAMP induction in COS7 cells expressing hCTR2, average of a minimum of 3 determinations, read-out: hCTR2 EC50) [nM]
CC[C@H](C)[C@@H](C(=O)N[C@@H](CC(C)C)C(=O)N[C@@H](CO)C(=O)N[C@@H](CO)C(=O)N[C@H](C(=O)N[C@@H](CC(N)=O)C(=O)N[C@H](C(=O)NCC(=O)N[C@@H](CO)C(=O)N[C@@H](CC(N)=O)C(=O)N[C@H](C(=O)N1CCC[C@H]1C(N)=O)[C@@H](C)O)C(C)C)[C@@H](C)O)N(C)C(=O)[C@H](C)NC(=O)CN(C)C(=O)[C@H](Cc1ccccc1)NC(=O)[C@H](CC(N)=O)NC(=O)[C@H](CC(N)=O)NC(=O)[C@H](CO)NC(=O)[C@H](CO)NC(=O)[C@H](Cc1c[nH]cn1)NC(=O)[C@H](CCCNC(=N)N)NC(=O)[C@H](CC(C)C)NC(=O)[C@H](Cc1ccccc1)NC(=O)[C@H](CCC(=O)O)NC(=O)[C@H](C)NC(=O)[C@H](CC(C)C)NC(=O)[C@H](CCCNC(=N)N)NC(=O)[C@H](CCC(N)=O)NC(=O)[C@@H](NC(=O)[C@H](C)NC(=O)[C@@H]1CSSC[C@H](NC(=O)[C@H](CCCNC(=N)N)NC(=O)CC[C@H](NC(=O)CCCCCCCCCCCCCCCCCCC(=O)O)C(=O)O)C(=O)N[C@@H](CC(N)=O)C(=O)N[C@@H]([C@@H](C)O)C(=O)N[C@@H](C)C(=O)N[C@@H]([C@@H](C)O)C(=O)N1)[C@@H](C)O [Compound 21, [19CD]-isoGlu-RC()NTATC()ATQRLAEFLRHSSNNF-Gly(Me)-A-Ile(Me)-LSSTNVGSNTP-NH2] ({C20 diacid-γGlu}-RCNTATCATQRLAEFLRHSSNNF[Sar]A[NMeI]LSSTNVGSNTP-NH2; disulfide 2-7)	0.38	SS (SS indicates solubility ≥ 1mg/ml)	SS (SS indicates solubility ≥ 1mg/ml)	SS (SS indicates solubility ≥ 1mg/ml)	SS (SS indicates solubility ≥ 1mg/ml)	SS (SS indicates solubility ≥ 1mg/ml)	SS (SS indicates solubility ≥ 1mg/ml)	SS (SS indicates solubility ≥ 1mg/ml)	
CC[C@H](C)[C@@H](C(=O)N[C@@H](CC(C)C)C(=O)N[C@@H](CO)C(=O)N[C@@H](CO)C(=O)N[C@H](C(=O)N[C@@H](CC(N)=O)C(=O)N[C@H](C(=O)NCC(=O)N[C@@H](CO)C(=O)N[C@@H](CC(N)=O)C(=O)N[C@H](C(=O)N1CCC[C@H]1C(N)=O)[C@@H](C)O)C(C)C)[C@@H](C)O)N(C)C(=O)CN(C)C(=O)[C@H](Cc1ccccc1)NC(=O)[C@H](CC(N)=O)NC(=O)[C@H](CC(N)=O)NC(=O)[C@H](CO)NC(=O)[C@H](CO)NC(=O)[C@H](Cc1c[nH]cn1)NC(=O)[C@H](CCCNC(=N)N)NC(=O)[C@H](CC(C)C)NC(=O)[C@H](Cc1ccccc1)NC(=O)[C@H](CCC(=O)O)NC(=O)[C@H](C)NC(=O)[C@H](CC(C)C)NC(=O)[C@H](CCCNC(=N)N)NC(=O)[C@H](CCC(N)=O)NC(=O)[C@@H](NC(=O)[C@H](C)NC(=O)[C@@H]1CSSC[C@H](NC(=O)[C@H](CCCNC(=N)N)NC(=O)CC[C@H](NC(=O)CCCCCCCCCCCCCCCCCCC(=O)O)C(=O)O)C(=O)N[C@@H](CC(N)=O)C(=O)N[C@@H]([C@@H](C)O)C(=O)N[C@@H](C)C(=O)N[C@@H]([C@@H](C)O)C(=O)N1)[C@@H](C)O [Compound 22, [19CD]-isoGlu-RC()NTATC()ATQRLAEFLRHSSNNF-Gly(Me)-Ile(Me)-LSSTNVGSNTP-NH2] ({C20 diacid-γGlu}-RCNTATCATQRLAEFLRHSSNNF[Sar][NMeI]LSSTNVGSNTP-NH2; disulfide 2-7)		SS (SS indicates solubility ≥ 1mg/ml)	SS (SS indicates solubility ≥ 1mg/ml)	SS (SS indicates solubility ≥ 1mg/ml)	SS (SS indicates solubility ≥ 1mg/ml)	SS (SS indicates solubility ≥ 1mg/ml)	SS (SS indicates solubility ≥ 1mg/ml)	SS (SS indicates solubility ≥ 1mg/ml)	0.31
